Entries after “also recorded” stand apart in the source; their conditions may differ. No end group written: not given here.
How the values were obtained:
CRFR2 = settings: urocortin versus CRF; cited from earlier work
wild type mice = assay: cardiovascular response to intravenous infusion, wild type mice; format: in vivo
Source text: (§1) The cardiovascular responses to intravenous infusion of urocortin and sodium nitroprusside, a vasodilator, were examined in mice (wild type: n 5; mutant: n=3) anesthetized with isofluorine. The arterial catheter for blood pressure recording was fabricated from a sterile PE-10 tubing softened and pulled to an outer diameter of ˜0.4 mm. The femoral artery was exposed, and the arterial catheter filled with heparin saline (500 U/ml) was implanted and secured with surgical threads and tissue glue (Vetbond). […] A second catheter was then implanted in the external jugular vein for intravenous infusion of drugs. Drug infusion was performed […] following completion of the cannulation procedure. The venous catheter was connected to a drug-filled syringe. Infusion was completed within 0.5-1.0 min. Both wild type and mutants received an identical dose of urocortin (0.1 μg in 200 μl of 0.9% saline) and saline (as a control).
(§2) The doses used were determined from preliminary experiments with reference to data obtained from corresponding studies in Sprague Dawley rats (2). In order to verify that the lack of cardiovascular response to the urocortin injection in mutants was not attributed to the loss of ability of the mice to vasodilate, the mutant mice also received a second infusion of sodium nitroprusside (0.8 μg in 100 μl of 0.9% saline) following recovery of arterial pressure from the urocortin infusion. The mean arterial pressure (MAP) was determined from the blood pressure tracings.

CRFR2 null mutant mice = assay: cardiovascular response to intravenous infusion, CRFR2 null mutant mice; format: in vivo; settings: for arterial pressure response to urocortin: intravenous infusion
Source text: as §1, §2

mice = assay: hair growth over gel foam sponge implanted under shaved skin; format: in vivo; settings: after five days
Source text: Small regions area of mice were shaved over of their skin and gel foam sponges impregnated with bFGF and urocortin, various growth factors, and CRF antagonist astressin were surgically implanted under the shaved skin. […] Therefore, urocortin and bFGF stimulate rapid hair growth.

Row | Substance | affinity for CRFR2 relative to CRF (CRFR2) [fold] | depressor response (change in arterial pressure) (wild type mice; control mice, anesthetized, urocortin 0.1 μg intravenous infusion) [mm Hg] | persistence of the reduction in arterial pressure (recording period) (wild type mice; control mice, urocortin 0.1 μg intravenous infusion) [min] | mean arteriole pressure response to intravenous urocortin (wild type mice; wild type animals) | arterial pressure response to urocortin (CRFR2 null mutant mice) | arterial pressure response to urocortin (CRFR2 null mutant mice; listed as UCN) | reduction in arterial pressure, only 1 mutant mouse, transient (CRFR2 null mutant mice; urocortin 0.1 μg intravenous, likely attributable to injection pressure) [mmHg] | hair growth in shaved area above implanted sponge (mice)
1 | urocortin (DNPSLSIDLTFHLLRTLLELARTQSQRERAEQNRIIFDSV; ends and bridges not checked; UniProt P55089 83-122, looked up) [a CRF-related peptide, thought to be the endogenous ligand for CRFR2] | ~40 | −28.3±2.0 | 90 to 120 | dramatic decrease | no measurable responses; also recorded: no response | remarkable muted response | −3.5 | 
2 | astressin |  |  |  |  |  |  |  | Little hair growth

Source: patent US7674463B1, “Method of inhibiting angiogenesis by administration of a corticotropin releasing factor receptor 2 agonist” (Research Development Foundation, priority 1999, dated 2010)
